# Experimental data: patent US7772246B2 (Pfizer Inc., priority 2007, dated 2010)
# Molecular target: T1, b-Raf (Homo sapiens, UniProt P15056, V600E)
# T1 construct: endogenous in cells; host or cells: A2058 human melanoma cells
# Assay: Raf cellular assay (phospho-Mek1/2 ELISA in A2058 cells)
# Format: cell-based
# Conditions: Table 3; human melanoma A2058 cells (b-Raf mutation), Mek1/2 Ser217/221 phosphorylation, 1 hour incubation; read-out: pMEK IC50
# Protocol: Compounds of the present invention were evaluated for potency against b-Raf using a cellular assay as follows. The activity of Raf kinases in cells is determined by measuring the level of phosphorylation of Mek1/2 at serine 217/221, the site phosphorylated by Raf kinases in vivo. Mek1/2 Ser phosphorylation is measured using anti-phospho-Mek1/2 antibodies (Cell Signaling #9121) in an ELISA format.
# Healthy growing human melanoma A2058 cells (harboring a b-Raf mutation) are used for the assay. A2058 cells are grown in 10% FBS DMEM medium. When the cells are near 85%+confluence, the cells are rinsed with PBS once and trypsinized with trypsin/EDTA for 3 minutes. The cells are resuspended in 10% FBS DMEM and are centrifuged down at 1000 rpm for 5 minutes. The cells are resuspended in 10% FBS DMEM and counted on a cell counter. The cells are seeded at 50,000 cells/well in a volume of 100 μL/well in 10% FBS DMEM in a 96 well flat-bottom plate. The negative control wells receive only 100 μL of 10% FBS DMEM medium without cells. The plate is incubated overnight in a cell culture incubator with 5% CO2 at 37° C.
# On day 2, testing compounds are prepared in 10% FBS DMEM medium and serially diluted at 1:3 for 11 test concentrations. Each concentration of the compounds is tested in duplicate. The compound solutions are added at 25 μL/well to the corresponding wells in the cell plate, and 25 μL/well of the vehicle (0.5% DMSO in 10% FBS DMEM) is added to the negative control wells (no cells) and the positive control wells (cells without compounds). The plate is incubated for 1 hour in a cell culture incubator with 5% CO2 at 37° C. After 1 hour of incubation, the medium is removed, 100 μL/well of cell lysis buffer is added into the cell plate, and the plate is shaken for 15 minutes at room temperature. After 15 minutes, the cell lysates are transferred to an ELISA plate (pre-coated with anti-Mek1 anti-body, Cell Signaling #2352), and the plate is incubated with gentle shaking for 2 hours at room temperature. After 2 hours, the contents of the wells are aspirated and the wells are washed 4 times with wash buffer. 100 μL of phospho-Mek1/2 detection antibody (Cell Signaling #9121) is added into each well and the plate is incubated with gentle shaking for 1 hour at room temperature. After 1 hour, the wells are aspirated and washed 4 times with wash buffer. 100 μL of anti-rabbit IgG HRP-linked antibody (Cell Signaling #7074) is added to each well, and the plate is incubated with gentle shaking for 1 hour at room temperature. After 1 hour, the contents of the wells are aspirated and the wells are washed 4 times with wash buffer. 100 μL of TMB substrate solution (Sigma #T0440) is added into each well, and the plate is incubated with gentle shaking at room temperature for 10 to 20 minutes. After color development, 100 μL of stop solution (1N hydrochloric acid) is added to each well to terminate color development. The plate is read at 450 nm on an ELISA plate reader.
# T1 sequence (P15056 whole entry V600E): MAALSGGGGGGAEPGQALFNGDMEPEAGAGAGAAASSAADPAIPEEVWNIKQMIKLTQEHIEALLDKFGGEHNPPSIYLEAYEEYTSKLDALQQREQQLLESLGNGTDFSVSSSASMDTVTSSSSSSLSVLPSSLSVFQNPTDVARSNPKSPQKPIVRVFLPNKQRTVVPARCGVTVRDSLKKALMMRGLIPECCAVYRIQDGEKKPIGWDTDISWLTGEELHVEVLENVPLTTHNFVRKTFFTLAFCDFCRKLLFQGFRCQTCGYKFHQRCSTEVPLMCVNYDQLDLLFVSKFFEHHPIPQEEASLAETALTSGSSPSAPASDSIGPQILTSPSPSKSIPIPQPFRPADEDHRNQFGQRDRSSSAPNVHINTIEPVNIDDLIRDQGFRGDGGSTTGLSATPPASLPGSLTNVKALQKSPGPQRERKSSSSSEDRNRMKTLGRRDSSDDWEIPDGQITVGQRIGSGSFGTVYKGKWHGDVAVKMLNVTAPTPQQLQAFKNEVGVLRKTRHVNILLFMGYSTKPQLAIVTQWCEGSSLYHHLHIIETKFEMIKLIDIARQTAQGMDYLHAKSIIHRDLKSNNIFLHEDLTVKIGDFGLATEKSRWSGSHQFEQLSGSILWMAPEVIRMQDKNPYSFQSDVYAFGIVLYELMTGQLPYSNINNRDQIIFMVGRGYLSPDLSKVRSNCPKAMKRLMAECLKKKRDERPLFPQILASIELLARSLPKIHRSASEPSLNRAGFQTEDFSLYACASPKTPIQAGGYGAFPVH
row,IC50 [nM],SMILES
1,28.5,"Cc1cc(-c2nn(CC(F)F)cc2-c2ccnc(NCCC#N)n2)cnc1N [Example G-7, 3-(4-(3-(6-amino-5-methylpyridin-3-yl)-1-(2,2-difluoroethyl)-1H-pyrazol-4-yl)pyrimidin-2-ylamino)-propanenitrile]"
2,196,"CN1CCC(n2cc(-c3ccncn3)c(-c3cnc4[nH]cc(Cl)c4c3)n2)CC1 [Example F-2, 3-chloro-5-[1-(1-methylpiperidin-4-yl)-4-pyrimidin-4-yl-1H-pyrazol-3-yl]-1H-pyrrolo[2,3-b]pyridine]"
3,3800,"C[C@H](O)CNc1nccc(-c2cn(CC(F)F)nc2-c2cnc3[nH]cc(C#N)c3c2)n1 [Example B-103, 5-[1-(2,2-difluoroethyl)-4-(2-{[(2S)-2-hydroxypropyl]amino}pyrimidin-4-yl)-1H-pyrazol-3-yl]-1H-pyrrolo[2,3-b]pyridine-3-carbonitrile]"
4,17.3,"CC(C)(C#N)n1cc(-c2ccnc(N)n2)c(-c2cnc3[nH]cc(Cl)c3c2)n1 [Example G-6, 2-[4-(2-aminopyrimidin-4-yl)-3-(3-chloro-1H-pyrrolo[2,3-b]pyridin-5-yl)-1H-pyrazol-1-yl]-2-methylpropanenitrile]"
5,30.3,"CC(C)(CO)n1cc(-c2ccnc(NCC(F)F)n2)c(-c2cnc3[nH]ccc3c2)n1 [Example B-48, 2-[4-{2-[(2,2-difluoroethyl)amino]pyrimidin-4-yl}-3-(1H-pyrrolo[2,3-b]pyridin-5-yl)-1H-pyrazol-1-yl]-2-methylpropan-1-ol]"
6,9.46,"Cc1c[nH]c2ncc(-c3nn(CC(F)F)cc3-c3ccnc(NCCO)n3)cc12 [Example B-105, 2-({4-[1-(2,2-difluoroethyl)-3-(3-methyl-1H-pyrrolo[2,3-b]pyridin-5-yl)-1H-pyrazol-4-yl]pyrimidin-2-yl}amino)ethanol]"
7,5.24,"COc1cc(-c2nn(C)cc2-c2ccnc(NCCC#N)n2)cnc1N [Example G-2, 3-({4-[3-(6-amino-5-methoxypyridin-3-yl)-1-methyl-1H-pyrazol-4-yl]pyrimidin-2-yl}amino)propanenitrile]"
8,1.37,"Cc1c[nH]c2ncc(-c3nn(C(F)F)cc3-c3ccnc(NCCC#N)n3)cc12 [Example B-44, 3-({4-[1-(difluoromethyl)-3-(3-methyl-1H-pyrrolo[2,3-b]pyridin-5-yl)-1H-pyrazol-4-yl]pyrimidin-2-yl}amino)-propanenitrile]"
9,2200,"CC(=O)Nc1cc(C)c(-c2nn(CC(F)F)cc2-c2ccnc(NCCC#N)n2)cn1 [Example B-26, N-{5-[4-{2-[(2-cyanoethyl)amino]pyrimidin-4-yl}-1-(2,2-difluoroethyl)-1H-pyrazol-3-yl]-4-methylpyridin-2-yl}acetamide]"
10,61.9,"C[C@H](O)CNc1nccc(-c2cn(C3CC(F)(F)C3)nc2-c2cnc3[nH]cc(Cl)c3c2)n1 [Example B-17, (2S)-1-({4-[3-(3-chloro-1H-pyrrolo[2,3-b]pyridin-5-yl)-1-(3,3-difluorocyclobutyl)-1H-pyrazol-4-yl]pyrimidin-2-yl}amino)propan-2-ol]"
11,174,"Cc1[nH]c2ncc(-c3nn(C(C)C)cc3-c3ccnc(NC[C@H](C)O)n3)cc2c1Cl [Example B-97, (2S)-1-({4-[3-(3-chloro-2-methyl-1H-pyrrolo[2,3-b]pyridin-5-yl)-1-isopropyl-1H-pyrazol-4-yl]pyrimidin-2-yl}amino)propan-2-ol]"
12,458,"N#CCCNc1nccc(-c2cn(CC(F)F)nc2-c2cnc3cc[nH]c3c2)n1 [Example B-36, 3-({4-[1-(2,2-difluoroethyl)-3-(1H-pyrrolo[3,2-b]pyridin-6-yl)-1H-pyrazol-4-yl]pyrimidin-2-yl}amino)propanenitrile]"
13,48.2,"Cc1c[nH]c2ncc(-c3nn(C(F)F)cc3-c3ccnc(N)n3)cc12 [Example B-40, 4-[1-(difluoromethyl)-3-(3-methyl-1H-pyrrolo[2,3-b]pyridin-5-yl)-1H-pyrazol-4-yl]pyrimidin-2-amine]"
14,2.8,"Cc1n[nH]c2ncc(-c3nn(C(C)(C)C)cc3-c3ccnc(NCCC#N)n3)cc12 [Example B-71, 3-({4-[1-tert-butyl-3-(3-methyl-1H-pyrazolo[3,4-b]pyridin-5-yl)-1H-pyrazol-4-yl]pyrimidin-2-yl}amino)propanenitrile]"
15,509,"C[C@H](O)CNc1nccc(-c2cn(CC(F)F)nc2-c2cnc3c(c2)CCN3)n1 [Example B-102, (2S)-1-({4-[1-(2,2-difluoroethyl)-3-(2,3-dihydro-1H-pyrrolo[2,3-b]pyridin-5-yl)-1H-pyrazol-4-yl]pyrimidin-2-yl}amino)propan-2-ol]"
16,0.428,"Cc1c[nH]c2ncc(-c3nn(C(C)(C)CO)cc3-c3ccnc(NCCC#N)n3)cc12 [Example B-23, 3-({4-[1-(2-hydroxy-1,1-dimethylethyl)-3-(3-methyl-1H-pyrrolo[2,3-b]pyridin-5-yl)-1H-pyrazol-4-yl]pyrimidin-2-yl}amino)propanenitrile]"
17,2.87,"Cc1c[nH]c2ncc(-c3nn(C(C)(C)C)cc3-c3ccnc(NC[C@H](C)O)n3)cc12 [Example B-66, (2S)-1-({4-[1-tert-butyl-3-(3-methyl-1H-pyrrolo[2,3-b]pyridin-5-yl)-1H-pyrazol-4-yl]pyrimidin-2-yl}amino)propan-2-ol]"
18,44.1,"Nc1nccc(-c2cn(C(F)F)nc2-c2cnc3[nH]cc(Cl)c3c2)n1 [Example B-43, 4-[3-(3-chloro-1H-pyrrolo[2,3-b]pyridin-5-yl)-1-(difluoromethyl)-1H-pyrazol-4-yl]pyrimidin-2-amine]"
19,30.6,"C[C@H](O)CNc1nccc(-c2cn([C@H]3C[C@H](F)C3)nc2-c2cnc3[nH]cc(Cl)c3c2)n1 [Example B-86, (S)-1-(4-(3-(3-chloro-1H-pyrrolo[2,3-b]pyridin-5-yl)-1-((1r,3r)-3-fluorocyclobutyl)-1H-pyrazol-4-yl)pyrimidin-2-ylamino)propan-2-ol]"
20,538,"Cc1ccc(-c2nn(CC(F)F)cc2-c2ccnc(NCCC#N)n2)cn1 [Example B-28, 3-({4-[1-(2,2-difluoroethyl)-3-(6-methylpyridin-3-yl)-1H-pyrazol-4-yl]pyrimidin-2-yl}amino)propanenitrile]"
21,63.5,"COc1cncc(-c2nn([C@@H]3CCOC3)cc2-c2ccnc(NCCC#N)n2)c1 [Example B-73, 3-[(4-{3-(5-methoxypyridin-3-yl)-1-[(3R)-tetrahydrofuran-3-yl]-1H-pyrazol-4-yl}pyrimidin-2-yl)amino]propanenitrile]"
22,510,"CC1CNc2ncc(-c3nn(CC(F)F)cc3-c3ccnc(NC[C@H](C)O)n3)cc21 (stereo partly drawn) [Example B-87, (2S)-1-(4-(1-(2,2-difluoroethyl)-3-(3-methyl-2,3-dihydro-1H-pyrrolo[2,3-b]pyridin-5-yl)-1H-pyrazol-4-yl)pyrimidin-2-ylamino)propan-2-ol]"
23,61.7,"Clc1c[nH]c2ncc(-c3nn(C4CCNCC4)cc3-c3ccncn3)cc12 [Example B-64, 3-chloro-5-(1-piperidin-4-yl-4-pyrimidin-4-yl-1H-pyrazol-3-yl)-1H-pyrrolo[2,3-b]pyridine]"
24,95.3,"COc1cc(-c2nn(-c3ccc(C#N)cc3)cc2-c2ccnc(NCCO)n2)cnc1N [Example B-80, 4-[3-(6-amino-5-methoxypyridin-3-yl)-4-{2-[(2-hydroxyethyl)-amino]pyrimidin-4-yl}-1H-pyrazol-1-yl]-benzonitrile]"
25,1310,"COc1cc(-c2n[nH]cc2-c2ccnc(N)n2)cnc1N [Example C-2, 4-[3-(6-amino-5-methoxypyridin-3-yl)-1H-pyrazol-4-yl]pyrimidin-2-amine]"
26,8.15,"CC(C)(C)n1cc(-c2ccnc(NCCC#N)n2)c(-c2cnc3c(c2)CCN3)n1 [Example B-72, 3-({4-[1-tert-butyl-3-(2,3-dihydro-1H-pyrrolo[2,3-b]pyridin-5-yl)-1H-pyrazol-4-yl]pyrimidin-2-yl}amino)propanenitrile]"
27,1.95,"N#CCCNc1nccc(-c2cn(CC(F)F)nc2-c2cnc3[nH]cc(F)c3c2)n1 [Example B-21, 3-({4-[1-(2,2-difluoroethyl)-3-(3-fluoro-1H-pyrrolo[2,3-b]pyridin-5-yl)-1H-pyrazol-4-yl]pyrimidin-2-yl}amino)propanenitrile]"
